{
  "source": "patent US20210207079A1",
  "about": "“PROCESS FOR PRODUCING CELL CULTURE MEDIA” (Merck Patent GmbH, priority 2015, published 2021)",
  "key": {"[1]": {"conditions": "cited from earlier work"}, "[2]": {"conditions": "Cellvento CHO 200, text"}, "[3]": {"conditions": "in water at 25° C.; cited from earlier work"}},
  "note": "Where two headings read alike, the source gives them in different places.",
  "data": [
    {"compound": "O=C[C@@H](O)[C@@H](O)[C@H](O)[C@H](O)CO", "note": "[D(+)-Mannose]", "values": [
      {"measurement": "Solubility (water) PubChem Database", "setting": "[1]; at 17° C.", "result": 713, "unit": "g/L bei"}
    ]},
    {"compound": "Cl.NCCCC[C@H](N)C(=O)O", "note": "[L-LYSINE MONOHYDROCHLORIDE]", "values": [
      {"measurement": "Solubility (water) PubChem Database", "setting": "[1]; at 25° C.", "result": ">100", "unit": "g/100 g/100 ml"}
    ]},
    {"compound": "[Ca+2].[Cl-].[Cl-]", "note": "[Calcium Chloride anhydrous]", "values": [
      {"measurement": "Solubility (water) PubChem Database", "setting": "[1]; at 20° C.", "result": 745, "unit": "g/l at"}
    ]},
    {"compound": "O=C(CO)[C@@H](O)[C@H](O)[C@H](O)CO", "note": "[D(−)-FRUCTOSE]", "values": [
      {"measurement": "Solubility (water) PubChem Database", "setting": "[1]; at 25° C.", "result": 200, "unit": "g/100 ml"}
    ]},
    {"compound": "N[C@@H](CSSC[C@H](N)C(=O)O)C(=O)O", "note": "[L-Cystine, L-cystine]", "values": [
      {"measurement": "Maximal concentration in Cellvento CHO 200 at which the medium can still be completely dissolved in water", "setting": "[2]", "result": "below 0.1 g/L"},
      {"measurement": "Solubility", "setting": "[3]", "result": "nearly insoluble"}
    ]},
    {"compound": "CSCC[C@H](N)C(=O)O", "note": "[L-Methionine]", "values": [
      {"measurement": "Solubility (water) PubChem Database", "setting": "[1]; at 25° C.", "result": 56.6, "unit": "g/L water g/l"}
    ]},
    {"compound": "C[C@H](N)C(=O)O", "note": "[L-ALANINE]", "values": [
      {"measurement": "Solubility (water) PubChem Database", "setting": "[1]; at 25° C.", "result": 164, "unit": "g/l water"}
    ]},
    {"compound": "[Cl-].[K+]", "note": "[Potassium chloride]", "values": [
      {"measurement": "Solubility (water) PubChem Database", "setting": "[1]; at 25° C.", "result": "35.5/100 g /100 g water"}
    ]}
  ]
}
